Values quoted from earlier work as cited in US5695952A, “Method for producing [Leu^13 ]motilin” (Kyowa Hakko Kogyo Co., Ltd., priority 1986, dated 1997).

Conditions: M. Fujino et al., Chem. Pharm. Bull., 26, 101 (1978)

- motilin activity after oxidation of Met to the sulfoxide form: decreased motilin activity
SMILES: CC[C@H](C)[C@H](NC(=O)[C@@H]1CCCN1C(=O)[C@@H](NC(=O)[C@@H](N)Cc1ccccc1)C(C)C)C(=O)N[C@@H](Cc1ccccc1)C(=O)N[C@H](C(=O)N[C@@H](Cc1ccc(O)cc1)C(=O)NCC(=O)N[C@@H](CCC(=O)O)C(=O)N[C@@H](CC(C)C)C(=O)N[C@@H](CCC(N)=O)C(=O)N[C@@H](CCCNC(=N)N)C(=O)N[C@@H](CCSC)C(=O)N[C@@H](CCC(N)=O)C(=O)N[C@@H](CCC(=O)O)C(=O)N[C@@H](CCCCN)C(=O)N[C@@H](CCC(=O)O)C(=O)N[C@@H](CCCNC(=N)N)C(=O)N[C@@H](CC(N)=O)C(=O)N[C@@H](CCCCN)C(=O)NCC(=O)N[C@@H](CCC(N)=O)C(=O)O)[C@@H](C)O [motilin]
